Measured values reported in patent publication US9796751B2, “Glycyrrhetinic acid derivative and use thereof” (INI CORPORATION, priority 2013, dated 2017).

Tests used:
[1] = physchem; format: physicochemical
[2] = Intracerebral migration after administration via various paths; format: in vivo, mice
Excerpt: In this respect, the presently disclosed embodiment has a significant effect.

[3] = test system: C57BL/6J mouse with chronic constriction injury (CCI) of sciatic nerve; experiment: Pain behavior test (mechanical allodynia), chronic constriction injury (CCI) of sciatic nerve, von Frey hair; format: in vivo; details: once a day from 7th to 14th day after CCI operation, Gabapentin 30 mg/kg i.p.
Experimental: Chronic pain was caused by performing a chronic constriction injury (CCI) operation of sciatic nerve on a hind leg of a C57BL/6J mouse (8 week old, n=4 in each group). Threshold values of mechanical strength which indicated avoidance behavior were recorded by pressing a von Frey hair against the foot pad of the mouse's hind leg (from the previous day of the CCI operation to the 14th day after the operation).
Regarding drugs, the below drugs were administered once a day from the 7th day to the 14th day after the operation, and the therapeutic effects were studied. In this example, “Compound No. 37” is a compound represented by the above formula (2).
Control: the same volume of physiological saline
Gabapentin: 30 mg/kg, intraperitoneal administration
Compound No. 37: 100 mg/kg, subcutaneous administration
Compound No. 37: 20 mg/kg, subcutaneous administration
Compound No. 37: 20 mg/kg, intraperitoneal administration

[4] = test system: glutamate concentration in cerebrospinal fluid; experiment: Cerebrospinal fluid glutamate concentration determination (HPLC); format: in vivo, mouse; details: 14th day after CCI operation, compared with Gabapentin group
Experimental: On the 14th day after the CCI operation, cerebrospinal fluid were collected from the foramen magnum of the above-mentioned mice, and the glutamate concentration was measured quantitatively with HPLC.

[5] = LD50 test; details: in vivo; read-out: LD50 (lethal dose 50%)
Excerpt: LD50 (lethal dose 50%) of the glycyrrhetinic acid derivative (the compound of the above formula (2)) of the disclosed embodiment and LD50 of carbenoxolone were compared.

[6] = test system: human superoxide dismutase 1 (SOD1) G93A mutant transgenic mice; experiment: Survival extension effect in ALS acute-onset model mice (Kaplan-Meier); format: in vivo, mouse; details: 20 mg/kg intraperitoneal three times a week from 7-8 weeks of age; p<0.05
Experimental: The assessment of drug efficacy was conducted using, as an animal model of neurodegenerative diseases, the human superoxide dismutase 1 (SOD1) G93A mutant transgenic mice, which are widely used as an acute-onset model of amyotrophic lateral sclerosis (ALS).
Starting at 7-8 weeks of age, which is considered to be an early ALS onset period, the mice were intraperitoneally administered with 20 mg/kg body weight of the glycyrrhetinic acid derivative of the disclosed embodiment (Compound No. 37 group) or the same volume of physiological saline (saline group) three times a week.
The survival analysis was performed using the Kaplan-Meier method.

[7] = test system: human amyloid β1-42 peptide (Aβ) intraventricularly injected mice; experiment: Fear conditioned learning test in Alzheimer's disease model mice; format: in vivo, mouse; details: 20 mg/kg intraperitoneal three times a week; Aβ 300 pmol/3 μl intraventricular; vs physiological saline group; p<0.05
Experimental: The assessment of drug efficacy of the glycyrrhetinic acid derivative of the disclosed embodiment (Compound No. 37 group) was conducted using, as an animal model of neurodegenerative diseases, the human amyloid β1-42 peptide (Aβ) intraventricularly injected mice (Doi et al., Am J Pathol. 175 (5): 2121-32, 2009), which are widely used as an Alzheimer's disease model.
The mice were intraventricularly injected with 300 pmol/3 μl of Aβ, and from the day of the injection, they were intraperitoneally administered with 20 mg/kg body weight of the glycyrrhetinic acid derivative (Compound No. 37 group) of the disclosed embodiment or the same volume of physiological saline (vehicle group) three times a week. For control group was used wild type mouse (G57BL/6J) of the same age. Behavioral analysis was performed using the following fear conditioned learning test.
Associative learning was assessed using a fear conditioned learning test (Mouri et al., FASEB J. 21, 2135-2148, 2007; Nagai et al., FASEB J. 17, 50-52, and 2003). The mice were placed in a transparent acrylic cage with a stainless steel grid installed therein and were subjected to a 20 second tone stimulus (80 dB) and to an electric stimulus (0.6 mA) in the last 5 seconds. A set of this combination stimulus was repeated 4 times with 15 second intervals, thereby causing fear conditioning. […]

Row | SMILES | logD [1] | delivery into brain ([2]; injected hypodermically, model mice) | delivery into brain ([2]; intraarterial injection) | reaching central nervous system and medicinal effect ([2]; intraperitoneal injection, model mice) | delivery into brain ([2]; intravenous injection) | pain threshold value compared to Gabapentin group ([3]; 20 mg/kg intraperitoneal) | pain threshold value compared to Gabapentin group ([3]; 100 mg/kg subcutaneous) | glutamate concentration in the cerebrospinal fluid ([4]; 20 mg/kg intraperitoneal) | glutamate concentration in the cerebrospinal fluid ([4]; 20 mg/kg subcutaneous) | glutamate concentration in the cerebrospinal fluid ([4]; 100 mg/kg subcutaneous) | LD50 [5] | extension of survival on average vs saline group [6] | freezing behavior time in the contextual dependency test (memory disorder improvement) [7]
1 | C[n+]1cccc(C(=O)N[C@H]2CC[C@]3(C)[C@H]4C(=O)C=C5[C@@H]6C[C@@](C)(C(=O)O)CC[C@]6(C)CC[C@@]5(C)[C@]4(C)CC[C@H]3C2(C)C)c1 [Compound No. 37] | 2.94 | is delivered into brain | delivered into brain | reach a central nervous system and exert a medicinal effect | delivered into brain | significant increases of pain threshold values | significant increases of pain threshold values | a decrease of the glutamate concentration in the cerebrospinal fluid, which was equal to or more than that shown in Gabapentin group | a decrease of the glutamate concentration in the cerebrospinal fluid, which was equal to or more than that shown in Gabapentin group | a decrease of the glutamate concentration in the cerebrospinal fluid, which was equal to or more than that shown in Gabapentin group | > 5000 mg/kg | about 17 days | significantly moderated the observed reduction in freezing behavior time
2 | CC1(C)[C@@H](OC(=O)CCC(=O)O)CC[C@]2(C)[C@H]3C(=O)C=C4[C@@H]5C[C@@](C)(C(=O)O)CC[C@]5(C)CC[C@@]4(C)[C@]3(C)CC[C@@H]12 [carbenoxolone, reference compound] | – | – | – | – | – | – | – | – | – | – | 100 mg/kg | – | –
